Series [1] has as its target recombinant BACE1 protein (Homo sapiens, UniProt P56817). The series is described as follows: Biochemical FRET based assay. To be noted: recombinant BACE1 1 μg/ml, 120 minutes at room temperature, pH 5.0; read-out: Biochemical FRET based assay pIC50 (converted). The essentials: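 Proteolysis was read as the rise in donor fluorescence (320 nm excitation, 405 nm emission) from T0 to T120, expressed in RFU. The reaction ran 120 minutes at room temperature at pH 5.0 in citrate buffer with 4% DMSO, using […] quenched Swedish APP peptide and 1 μg/ml BACE1.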

In another series the test system is Abeta total. The series is described as follows: Cellular αLisa assay in SKNBE2 cells, Abeta total. Format: cell-based, human. To be noted: Homo sapiens, SKNBE2, 18 h, incubated for 18 hours, read-out: Cellular αLisa assay in SKNBE2 cells Abetatotal pIC50 (converted). In short, it runs like this: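 Secreted Abeta levels were measured by sandwich αLisa, pairing biotin-AbN/25 donor beads with Ab4G8 acceptor beads for total Abeta or cAb42/26 for Abeta 1-42, read at 615 nm after 650 nm excitation following 1 hour. Cells were SKNBE2 expressing wild-type hAPP695, exposed to compound for 18 hours.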

Series [2] can be described thus: Single dose pharmacology in the Beagle dog, pharmacokinetic (PK) follow up. It is filed as in vivo. To be noted: single dose 20 mg/kg; for concentration at 24 h: both sexes. Here is the method:
(§1) Single Dose Pharmacology in the Beagle Dog
(§2) Compound 86 was tested to evaluate the effect on the beta-amyloid profile in cerebrospinal fluid (CSF) of dogs after a single dose, in combination with pharmacokinetic (PK) follow up and limited safety evaluation. 6 Beagle dogs (3 male, 3 female) were dosed with vehicle (4 ml/kg of an aqueous suspension of 20% cyclodextrin and Tween) and 6 Beagle dogs (3 male, 3 female) were dosed with compound 86 (20 mg/kg in 2 ml/kg of an aqueous 20% cyclodextrin solution) on an empty stomach. CSF was taken in conscious animals directly from the lateral ventricle via a cannula which was screwed in the skull and covered with subcutaneous tissue and skin, before and at 4, 8 and 24 hours after dosing. 8 Hours after dosing the animals got access to their regular meal for 30 minutes. Blood was taken for PK follow up (0.5, 1, 2, 4, 8 and 24 hours) and at the time of the CSF sampling, samples for serum analysis were taken. An additional sample for serum analysis was taken 10 days after dosing. The CSF samples were used for measurement of Abeta 1-37, Abeta 1-38, Abeta 1-40 and Abeta 1-42.

Series [3] can be described thus: Single dose pharmacology in the Beagle dog, limited safety evaluation. It is filed as in vivo. To be noted: single dose 20 mg/kg. How it is done: as §1, §2
The test system of another series is Abeta 1-37. To be noted: Beagle dog, single dose 20 mg/kg, at 24 h.
Another series has as its system Abeta 1-38. To be noted: 20 mg/kg, 24 h.

Like-named read-outs stand apart in the source and are kept apart here.

From patent US9828350B2, “5,6-dihydro-2H-[1,4]oxazin-3-yl-amine derivatives useful as inhibitors of beta-secretase (BACE)” (Janssen Pharmaceutica NV, priority 2010, dated 2017) come the findings set out here.

As a reminder, the melting point is the temperature of the solid-liquid transition.

recombinant BACE1 protein, sequence (P56817 46-501): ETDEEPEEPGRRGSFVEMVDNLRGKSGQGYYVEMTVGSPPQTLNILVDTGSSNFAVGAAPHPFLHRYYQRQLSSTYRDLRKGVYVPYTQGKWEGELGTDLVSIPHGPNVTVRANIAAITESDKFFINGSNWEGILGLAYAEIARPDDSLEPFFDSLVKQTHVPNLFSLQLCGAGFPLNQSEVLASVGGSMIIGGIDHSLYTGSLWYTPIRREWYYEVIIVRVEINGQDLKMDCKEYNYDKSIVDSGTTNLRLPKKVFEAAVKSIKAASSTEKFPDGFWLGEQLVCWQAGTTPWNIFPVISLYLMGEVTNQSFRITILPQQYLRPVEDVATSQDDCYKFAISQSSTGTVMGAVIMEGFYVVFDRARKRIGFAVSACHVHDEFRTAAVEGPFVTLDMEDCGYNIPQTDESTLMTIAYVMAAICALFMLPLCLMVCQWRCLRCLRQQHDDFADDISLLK

`C[C@]1(c2cccc(NC(=O)c3ccc(Cl)cn3)c2)N=C(N)CO[C@@H]1F` (single isomer, unassigned) [Compound 86, (R*,R*)—N-[3-(5-amino-2-fluoro-3-methyl-3,6-dihydro-2H-1,4-oxazin-3-yl)phenyl]-5-chloropyridine-2-carboxamide] displayed a melting point of 157.7 °C. In addition, the IC50 in series [1] is 38.9 nM. Further, the IC50 with Abeta total is 6.17 nM. In series [2] (CSF, at 24 h, read-out: CSF levels), the concentration at 24 h worked out at 45 ng/mL. Moreover, the concentration at 24 h in series [2] (plasma, up to at least 24 h post dosing, read-out: plasma levels) came out at 1440 ng/mL. In addition, in series [2], the clearance entry is listed as “slow clearance”. Besides, the “clinical abnormalities in behavior” value in series [3] is reported as “no overt clinical abnormalities in behavior”. Besides, in series [3] (serum up to 10 days after dosing), the “changes in serum parameters (liver enzymes, bilirubin, ...)” value was “No acute or delayed changes in serum parameters”. In addition, the “decrease in Abeta 1-37 in CSF compared to own baseline” value in the series on Abeta 1-37 worked out at 72%. Further, in the series with Abeta 1-38, the “decrease in Abeta 1-38 in CSF compared to own baseline” value was > 90%.
